Assay results: paper PMC10731806, “Characterization of an iPSC-based barrier model for blood-brain barrier investigations using the SBAD0201 stem cell line” (Fluids and Barriers of the CNS, 2023)

What was measured:
LAT-1 = molecular target: T1, LAT-1 (Homo sapiens, UniProt Q01650); assay: Apical-to-basolateral transport of [3H]-L-leucine with and without LAT-1 inhibitors; format: cell-based; settings: [3H]-L-leucine 9.3 nM, A-B, HBSS+, one hour
T1 construct: endogenous in cells; host or cells: SBAD0201 hiPSC-derived brain capillary endothelial-like cells (BCECs)
Experimental: (§1) HBSS without glucose was used for transport assays involving [^3H]-glucose and 6-NBDG, whereas HBSS^+ was used for [^3H]-L-leucine. […] The function of GLUT-1 and LAT-1 were evaluated by co-application of the GLUT-1 inhibitors BAY876 (1 and 10 μM) and phloretin (100 μM) and the LAT-1 inhibitors JPH203 (10 μM) and BCH (100 μM). The inhibitors were added to the transport buffer in both chambers 15 min before the addition of the substrates.

GLUT-1 = molecular target: T2, GLUT-1 (Homo sapiens, UniProt P11166); assay: Apical-to-basolateral transport of GLUT-1 substrates with and without GLUT-1 inhibitors; format: cell-based; settings: A-B, glucose-free HBSS, one hour; for effect on apparent permeability of 6-NBDG: 6-NBDG 100 µM; for effect on apparent permeability of [^3H]-glucose: [3H]-glucose 20 nM
T2 construct: endogenous in cells; host or cells: SBAD0201 hiPSC-derived brain capillary endothelial-like cells (BCECs)
T2 sequence (P11166 1-492): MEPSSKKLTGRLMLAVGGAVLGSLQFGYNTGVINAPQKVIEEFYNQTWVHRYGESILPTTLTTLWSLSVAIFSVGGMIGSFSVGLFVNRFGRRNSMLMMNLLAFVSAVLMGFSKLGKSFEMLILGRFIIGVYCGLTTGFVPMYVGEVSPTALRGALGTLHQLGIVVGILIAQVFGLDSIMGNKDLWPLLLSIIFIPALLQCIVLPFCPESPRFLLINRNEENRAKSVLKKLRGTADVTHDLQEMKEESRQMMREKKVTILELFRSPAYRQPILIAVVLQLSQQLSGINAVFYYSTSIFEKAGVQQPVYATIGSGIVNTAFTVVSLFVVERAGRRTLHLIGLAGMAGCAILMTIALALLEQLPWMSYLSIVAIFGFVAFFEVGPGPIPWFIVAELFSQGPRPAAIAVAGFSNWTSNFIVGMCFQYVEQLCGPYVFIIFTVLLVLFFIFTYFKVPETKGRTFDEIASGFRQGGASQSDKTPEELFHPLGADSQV
Experimental: as §1

P-gp = assay: Bidirectional transport and uptake of P-gp substrates with and without zosuquidar; settings: for vectorial transport (bidirectional): EC-/- medium
GLUT1 = settings: cited from earlier work

T1 sequence (Q01650 whole entry): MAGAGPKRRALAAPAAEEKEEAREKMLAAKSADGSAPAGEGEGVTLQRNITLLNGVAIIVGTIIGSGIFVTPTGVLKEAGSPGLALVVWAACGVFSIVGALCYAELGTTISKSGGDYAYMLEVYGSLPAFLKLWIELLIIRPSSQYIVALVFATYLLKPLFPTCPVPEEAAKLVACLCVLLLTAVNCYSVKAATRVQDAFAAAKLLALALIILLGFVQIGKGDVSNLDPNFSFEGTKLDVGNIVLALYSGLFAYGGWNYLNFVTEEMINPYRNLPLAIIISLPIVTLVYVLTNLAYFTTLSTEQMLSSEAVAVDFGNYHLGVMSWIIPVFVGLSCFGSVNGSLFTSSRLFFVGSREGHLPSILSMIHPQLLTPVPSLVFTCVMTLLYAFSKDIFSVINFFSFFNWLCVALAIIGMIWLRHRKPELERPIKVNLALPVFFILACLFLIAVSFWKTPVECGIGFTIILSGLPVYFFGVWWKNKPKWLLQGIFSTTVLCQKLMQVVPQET
T1 sequence (P08195 102-630 partner): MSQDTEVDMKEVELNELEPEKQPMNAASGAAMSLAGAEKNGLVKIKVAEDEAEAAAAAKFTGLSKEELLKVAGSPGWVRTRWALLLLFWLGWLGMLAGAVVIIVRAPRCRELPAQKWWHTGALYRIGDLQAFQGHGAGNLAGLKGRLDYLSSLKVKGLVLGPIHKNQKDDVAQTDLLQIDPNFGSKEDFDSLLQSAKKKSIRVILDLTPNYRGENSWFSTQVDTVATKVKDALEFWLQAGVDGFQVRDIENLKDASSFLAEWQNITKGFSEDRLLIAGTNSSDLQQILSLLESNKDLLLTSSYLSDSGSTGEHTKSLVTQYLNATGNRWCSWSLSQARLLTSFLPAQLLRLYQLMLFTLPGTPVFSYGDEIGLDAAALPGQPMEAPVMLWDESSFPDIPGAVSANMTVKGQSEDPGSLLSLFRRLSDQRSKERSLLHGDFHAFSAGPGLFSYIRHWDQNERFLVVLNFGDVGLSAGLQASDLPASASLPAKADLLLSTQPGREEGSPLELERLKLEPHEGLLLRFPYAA

SMILES: Nc1cc(COc2c(Cl)cc(C[C@H](N)C(=O)O)cc2Cl)c2oc(-c3ccccc3)nc2c1 [JPH203]
- effect on transport of [3H]-L-leucine (LAT-1; JPH203 10 µM): significantly decreased

SMILES: O=C(CCc1ccc(O)cc1)c1c(O)cc(O)cc1O [phloretin]
- effect on apparent permeability of 6-NBDG (GLUT-1; 100 µM phloretin): sensitive to the addition
- effect on apparent permeability of [^3H]-glucose (GLUT-1; 100 µM phloretin): sensitive to the addition

SMILES: O[C@@H](COc1cccc2ncccc12)CN1CCN([C@@H]2c3ccccc3[C@@H]3[C@H](c4ccccc42)C3(F)F)CC1 [zosuquidar]
- effect on transport of rhodamine 123 and [3H]-digoxin (P-gp; zosuquidar 0.4 µM, both chambers, two hours): neither the transport nor the uptake of the substrates was affected
- effect on uptake of rhodamine 123 and [3H]-digoxin (P-gp; zosuquidar 0.4 µM, uptake probed after the transport study): neither the transport nor the uptake of the substrates was affected

SMILES: COC(=O)c1ccccc1-c1c2ccc(=N)cc-2oc2cc(N)ccc12 [rhodamine 123]
- vectorial transport (bidirectional) (P-gp; rhodamine 123 5 µM, two hours): No vectorial transport

SMILES: Cc1c(NC(=O)c2cc(C(N)=O)nc3cc(F)ccc23)c(C(F)(F)F)nn1Cc1ccc(C#N)cc1 [BAY876]
- effect on apparent permeability of 6-NBDG (GLUT-1; 10 µM BAY876): sensitive to the addition
- effect on apparent permeability of [^3H]-glucose (GLUT-1; 10 µM BAY876): sensitive to the addition
- selectivity for GLUT1 relative to GLUT2, GLUT3, GLUT4 (GLUT1): at least 130 fold

SMILES: NC1(C(=O)O)CC2CCC1C2 (centres unmarked) [BCH]
- effect on transport of [3H]-L-leucine (LAT-1; BCH 100 µM): significantly decreased

SMILES: C[C@H]1O[C@@H](O[C@H]2[C@@H](O)C[C@H](O[C@H]3[C@@H](O)C[C@H](O[C@H]4CC[C@@]5(C)[C@H](CC[C@@H]6[C@@H]5C[C@@H](O)[C@]5(C)[C@@H](C7=CC(=O)OC7)CC[C@]65O)C4)O[C@@H]3C)O[C@@H]2C)C[C@H](O)[C@@H]1O [[^3H]-digoxin, digoxin]
- vectorial transport (bidirectional) (P-gp; [3H]-digoxin 38.2 nM, two hours): No vectorial transport
